# According to patent US12551484B2, “Methods of treatment and/or prevention of major adverse cardiovascular events (MACE) with a combination of a BET bromodomain inhibitor and a sodium dependent glucose transport 2 inhibitor” (Resverlogix Corp., priority 2019, dated 2026):
# Where two headings read alike, the source gives them in different places.
# Key:
# type 2 diabetes patients [1] = settings: cited from earlier work
# type 2 diabetes patients [2] = settings: human, in vivo; cited from earlier work
# [3] = test system: type 2 diabetes patients with low HDL cholesterol and a recent acute coronary syndrome (ACS); assay: BETonMACE Phase 3 trial (NCT02586155), post-hoc analysis by SGLT2 inhibitor use
# Method: All patients received high intensity statin treatment as well as other evidence-based treatments.
# Patients (n=2425) with ACS in the preceding 7 to 90 days, with type 2 diabetes and low HDL cholesterol (≤40 mg/dl for men, 45 mg/dl for women), receiving intensive or maximum-tolerated therapy with atorvastatin or rosuvastatin, were assigned in double-blind fashion to receive apabetalone 100 mg orally twice daily or matching placebo. […] The primary efficacy measure is time to first occurrence of cardiovascular death, non-fatal myocardial infarction, or stroke.
# Those patients who received at least one dose of SGLT2 treatment after the date of the first incidence of event were censored as non-MACE events and the date of last contact was used as the censoring date.
# The distributions of the endpoints within the apabetalone and placebo groups were compared using a two-sided log-rank test (LRT) with an alpha=0.05 level of significance. The cumulative incidence is shown as 1-KM (Kaplan-Meier) estimate for event rate.
# [4] = cardiovascular death, non-fatal myocardial infarction, or stroke, FIGS. 1-2
# [5] = patients not treated with SGLT2 inhibitor, vs placebo (FIG. 2)
# [6] = patients not treated with SGLT2 inhibitor, vs placebo (FIG. 5)
# [7] = patients not treated with SGLT2 inhibitor, vs placebo (FIG. 8)
# [8] = patients not treated with SGLT2 inhibitor, vs placebo (FIG. 11)
# [9] = patients not treated with SGLT2 inhibitor, vs placebo (FIG. 14)
# [10] = patients not treated with SGLT2 inhibitor, vs placebo (FIG. 17)
smiles,measurement,setting,value
"OC[C@H]1O[C@@H](c2ccc(Cl)c(Cc3ccc(O[C@H]4CCOC4)cc3)c2)[C@H](O)[C@@H](O)[C@@H]1O [empaglifozin, empagliflozin]","HR, broadly defined MACE","type 2 diabetes patients [1]; human, in vivo",0.89
same,"HR, cardiovascular deaths","type 2 diabetes patients [1]; human, in vivo",0.62
same,"Hazard Ratio [HR], narrowly defined MACE","type 2 diabetes patients [1]; human, in vivo",0.86
same,reduction of broadly defined MACE,"type 2 diabetes patients [1]; human, in vivo",11%
same,reduction of narrowly defined MACE,"type 2 diabetes patients [1]; human, in vivo",14%
same,"HR, individual MACE events","type 2 diabetes patients [1]; with the exception of cardiovascular deaths, did not show any reduction",1.0
"Cc1ccc([C@@H]2O[C@H](CO)[C@@H](O)[C@H](O)[C@H]2O)cc1Cc1ccc(-c2ccc(F)cc2)s1 [Canaglifozin, canagliflozin]","HR, narrowly defined MACE",type 2 diabetes patients [2],0.86
same,reduction of narrowly defined MACE,type 2 diabetes patients [2],14%
same,reductions in the individual MACE events,type 2 diabetes patients [2],did not reach statistical significance
"COc1cc(OC)c2c(=O)[nH]c(-c3cc(C)c(OCCO)c(C)c3)nc2c1 [apabetalone, 2-(4-(2-hydroxyethoxy)-3,5-dimethylphenyl)-5,7-dimethoxyquinazolin-4(3H)-one]","Kaplan-Meier estimated event rate, narrowly defined MACE","[3]; at 18 months, FIGS. 1-2",8.0%
same,"primary end points (narrowly defined MACE), number in group",[3]; [4],111
same,"primary end points (narrowly defined MACE), percent of group",[3]; [4],10.5%
same,"Hazard Ratio [HR], narrowly defined MACE",[3]; [5],0.84
same,reduction of number of patients having a narrowly defined MACE event at any given time,[3]; [5],16%
same,"Hazard Ratio [HR], broadly defined MACE",[3]; [6],0.87
same,reduction of number of patients having a broadly defined MACE event at any given time,[3]; [6],13%
same,"Hazard Ratio [HR], non-fatal myocardial infarction",[3]; [7],0.85
same,reduction of number of patients having a non-fatal myocardial infarction event at any given time,[3]; [7],15%
same,"Hazard Ratio [HR], cardiovascular death",[3]; [8],0.84
same,reduction of number of patients having a cardiovascular death event at any given time,[3]; [8],16%
same,"Hazard Ratio [HR], hospitalization for cardiovascular diseases",[3]; [9],0.87
same,reduction of number of patients having a hospitalization for cardiovascular diseases event at any given time,[3]; [9],13%
same,"Hazard Ratio [HR], hospitalization for congestive heart failure",[3]; [10],0.61
same,reduction of number of patients having a hospitalization for congestive heart failure event at any given time,[3]; [10],39%
